Entries after “also recorded” stand apart in the source; their conditions may differ.
How the values were obtained:
[1] = tested on: M2 macrophages; experiment: Mac-CD4 T co-culture, surface marker modulation on macrophages; assay type: cell-based, human; conditions: relative to vehicle-treated M2 macrophages
Protocol: For evaluation of Mac-CD4 T cell surface marker modulation, M2 macrophages were co-cultured with T cells as described above and cells were harvested on day 8, day 9 and day 10 to perform surface receptor staining on both M2 macrophages and T cells.
Changes in surface marker expression on both macrophages and CD3 & CD28-stimulated T cells were also measured. Vehicle- and β-glucan-treated M2 macrophages and CD T cells from the co-cultures were evaluated by flow cytometry for the modulation of co-stimulatory or co-inhibitory molecules. FIG. 8C and Table 9 are representative results from 2 different experiments.

[2] = tested on: CD4 T cells; experiment: Mac-CD4 T cell proliferation assay (CFSE dilution); assay type: cell-based, human
[3] = tested on: CD4 T cells; experiment: MCM-CD4 T cell proliferation and surface marker study; assay type: cell-based, human
Protocol: For MCM-CD4 T cell proliferation study, CD3 & CD28-stimulated, CFSE-labeled CD4 T cells were cultured with 50% MCM. T cell proliferation was measured on day 11 as described above. Culture supernatants of the MCM-CD4 T cell co-culture were collected for subsequent cytokine analysis. MCM-CD4 T cell surface marker evaluation was performed as described above.
To determine whether soluble factors secreted from β-glucan-treated M2 macrophages are required, measurements were carried out of CD4 T cell proliferation co-cultured with β-glucan-treated M2 macrophages MCM (50% of volume) and surface activation marker modulation on T cells incubated with the MCM were observed. FIG. 9 is representative of 2 different experiments. […] In addition, the CD4 T cells cultured in vehicle- and β-glucan-treated M2 macrophage MCM were evaluated for modulation of co-stimulatory or co-inhibitory molecules (CD80, CD28, CTLA-4, 4-1BB and PD-1).
(§1) To test this, M2 macrophages were prepared as described above with a few modifications. The whole blood of a low binder was spun down to remove the plasma and then the cells were reconstituted with serum obtained from a high binder. The reconstituted blood was treated with vehicle or β-glucan (25 μg/mL) for 2 hours at 37° C. The monocytes were evaluated for binding by using anti-β-glucan specific monoclonal antibody and subsequent flow cytometry.

[4] = tested on: CD4 and CD8 T cells; experiment: Allogeneic mixed lymphocyte reaction with mMoDC; assay type: cell-based, human; conditions: β-glucan-treated mMoDC from high binders
[5] = tested on: Monocytes; experiment: Binding of β-glucan to monocytes in whole blood (serum cross-over); assay type: cell-based, human; conditions: low binder's whole blood with high binder's serum (higher ABA)
Protocol: as §1

[6] = tested on: H1299 NSCLC tumors; experiment: H1299 NSCLC tumors in mice, effect on TME; assay type: in vivo
Protocol: Mice bearing H1299 NSCLC tumors were administered bevacizumab (an anti-angiogenic antibody) (5 mg/kg twice weekly IP for four weeks) alone or in combination with IMPRIME PGG (1.2 mg/mouse twice weekly IV for four weeks) as described above for the other mouse studies. […] Increased iNOS and decreased Arginase 1 are markers indicating an M1, immunostimulatory environment.
In addition, at day 20, post tumor injection, spleens were harvested and single cell suspensions were stained with mouse antibodies and analyzed by FACS. GMFI or frequency was calculated in Flowjo after gating on CD11b+F4/80+CD68+ cells (FIG. 17D-FIG. 17F). FIG. 17D and FIG. 17E show an increase in iNOS and a decrease of Arginase-1, respectively. Spleen cells were also stimulated overnight with 100 ng/ml lipopolysaccharide (LPS) and analyzed for TNF-α production. […] As shown, Arginase-1 decreased and iNOS and CD86 increased, which indicates differentiation of splenic MDSC to M1/N1 macrophage/neutrophils with IMPRIME PGG treatment.
For FIG. 17K-FIG. 17M, tumors were harvested at day 20 and digested with type I collagenase for 1 hour at 37° C. Single cell suspensions were stained with mouse antibodies and analyzed by FACS. GMFI or frequency was calculated in Flowjo after gating on CD11b+ cells. As shown, PD-L1 and iNOS increased while Arginase-1 decreased indicating the shift in tumor-infiltrating myeloid cells to a M1-type phenotype.
Lastly, single cell suspensions of the tumor cells were cultured overnight and supernatants were measured for TGF-β by ELISA.

[7] = spleen, day 20, CD11b+F4/80+CD68+ cells

β(1,6)-[poly-(1,3)-D-glucopyranosyl]-poly-β(1,3)-D-glucopyranose [β-glucan]
Change in MFI on Macrophages: 4-1BBL [1]: No change
Change in MFI on Macrophages: CD40 [1]: No change
Change in MFI on Macrophages: CD80 [1]: No change
Change in MFI on Macrophages: CD172 [1]: No change
Change in MFI on Macrophages: CD209 [1]: No change
Change in MFI on Macrophages: OX40 [1]: No change
Change in MFI on Macrophages: HLA-DR ([1]; co-culture with CD3 & CD28-stimulated T cells): No change
Change in MFI on Macrophages: CD86 ([1]; day 8): relative increase
Change in MFI on Macrophages: PD-L1 (CD274) ([1]; day 9): relative increase
CD4 T cell proliferation ([2]; M1 macrophages, high binders or low binders, vs vehicle): no differences
CD4 T cell proliferation ([2]; M2 macrophages cultured in TCM and M2a macrophages cultured in IL-4, vs vehicle): maintained the ability to enhance
CD4 T cell proliferation ([2]; M2 macrophages, absence of exogenous CD28 antibody (CD3 only)): significantly higher ability to enhance
CD4 T cell proliferation ([2]; M2 macrophages, high binders, CD3 & CD28-stimulated, vs vehicle): significantly higher ability to enhance
CD4 T cell proliferation ([2]; M2 macrophages, low binders, vs vehicle): neither enhanced CD4 T cell proliferation; also recorded: no enhanced proliferation
CD4 T cell proliferation ([2]; co-culture with β-glucan-treated M2 macrophages, CD3 and CD28-stimulated): enhance CD4 T cell proliferation
T cell markers (CD80, CD28, CTLA-4, 4-1BB and PD-1) ([3]; CD4 T cells cultured in M2 macrophage MCM (data not shown)): no change
CD4 T cell proliferation ([3]; MCM of M2 macrophages of a low binder crossed-over with high binder's serum, vs vehicle): significantly higher ability to enhance
CD4 T cell proliferation ([3]; β-glucan-treated M2 macrophage MCM (50% of volume) vs vehicle MCM): significantly higher ability to enhance
immunogenicity in allo-MLR (CD4 and CD8 T cell expansion) ([4]; over low binders): increased immunogenicity
IFN-γ production ([4]; over low binders and vehicle): able to modulate IFN-γ production
binding of β-glucan to monocytes [5]: significantly higher binding
TNF-α production ([6]; spleen cells stimulated overnight with 100 ng/ml LPS): increase
Arginase-1 ([6]; spleen, CD11b+Gr1+ cells): decreased
CD86 ([6]; spleen, CD11b+Gr1+ cells): increased
iNOS ([6]; spleen, CD11b+Gr1+ cells): increased
Arginase-1 [6, 7]: decrease
iNOS [6, 7]: increase
expression of co-stimulatory marker CD86 ([6]; tumor granulocytic MDSC (CD11b+Lyg6+)): enhanced expression
